Measured values: patent US10757944B2, “Ozone treatment for elimination of pathogens” (priority 2016, dated 2020)

Legend:
[1] = Pesticide residue on hemp flower after ozone treatment (AOAC official method 2007.01); assay type: physicochemical; conditions: for Sample 1: residue on pesticide treated hemp exposed to ozone / Sample 2: residue on pesticide treated hemp exposed to ozone / Sample 3: residue on pesticide treated hemp exposed to ozone: 200 ppm ozone for 20 minutes; for average reduction of pesticide across the three samples tested: hemp, 20 minutes at 200 ppm ozone; for Control: residue on pesticide treated hemp not exposed to ozone: no ozone exposure
Experimental: The ability of ozone to reduce pesticide residue using an embodiment of a disclosed pathogen reduction device was evaluated. In this series of experiments, Myclobutanil and Bifenazate were purchased in liquid formulations (Myclobutanil at 19.7% from Dow AgroSciences as Eagle® 20EW and Bifenazate at 22.6% from Chemtura Corporation as Floramite® SC). The pesticides were sprayed on homogenized hemp flower and air dried. Dried hemp flower with pesticide was then exposed to treatment with 200 ppm of ozone for 20 minutes. Non pesticide treated hemp, pesticide treated hemp, and pesticide treated hemp that was exposed to ozone were analyzed by spectrometry using AOAC official method 2007.01. The results are disclosed below in Table 3 were Matrix Blank is non pesticide treated hemp (negative control), Control is pesticide treated hemp that was not exposed to ozone, and Sample 1, Sample 2, and Sample 3 are three samples of pesticide treated hemp that was exposed to ozone at 200 ppm for 20 minutes.

[2] = Cannabinoid and terpene content of cannabis flower before and after ozone exposure; assay type: physicochemical; conditions: for % Change (decrease): 60 minute exposure to 200 ppm of ozone vs before; for % After Ozone Exposure (60 minutes): content of cannabis flower after 60 minute exposure to 200 ppm of ozone; for % Before Ozone Exposure (0 minutes): content of cannabis flower before exposure
Experimental: Cannabinoid and terpene content of cannabis flower was measured before exposure to 200 ppm of ozone in an embodiment of a disclosed pathogen reduction device and after a 60 minute exposure. The results are disclosed in Table 7 by the different cannabinoids and terpenes measured.

Structure (SMILES)	Sample 1: residue on pesticide treated hemp exposed to ozone [1] [mg/kg]	Sample 2: residue on pesticide treated hemp exposed to ozone [1] [mg/kg]	Sample 3: residue on pesticide treated hemp exposed to ozone [1] [mg/kg]	average reduction of pesticide across the three samples tested [1] [ppm]	Control: residue on pesticide treated hemp not exposed to ozone [1] [mg/kg]	% Change (decrease) [2] [%]	% After Ozone Exposure (60 minutes) [2] [%]	% Before Ozone Exposure (0 minutes) [2] [%]
COc1ccc(-c2ccccc2)cc1NNC(=O)OC(C)C [Bifenazate]	0.28	0.21	0.22	0.1	0.34	–	–	–
CCCCCc1cc2c(c(O)c1C(=O)O)C=CC(C)(CCC=C(C)C)O2 (stereo not shown) [CBCA]	–	–	–	–	–	0.28	0.102	0.105
C=C(C)[C@@H]1CCC(C)=C[C@H]1c1c(O)cc(CCCCC)c(C(=O)O)c1O [CBDA]	–	–	–	–	–	5.4	0.035	0.037
CCCCCc1cc(O)c(C/C=C(\C)CCC=C(C)C)c(O)c1C(=O)O [CBGA]	–	–	–	–	–	13.4	0.552	0.638
CCCCCc1cc2c(c(O)c1C(=O)O)-c1cc(C)ccc1C(C)(C)O2 [CBNA]	–	–	–	–	–	0.04	0.0458	0.046
CCCCC(C#N)(Cn1cncn1)c1ccc(Cl)cc1 (stereo not shown) [Myclobutanil]	0.39	0.28	0.28	0.18	0.5	–	–	–
CCCCCc1cc2c(c(O)c1C(=O)O)[C@@H]1C=C(C)CC[C@H]1C(C)(C)O2 [THCA]	–	–	–	–	–	7.1	15.7	16.9
CCCc1cc2c(c(O)c1C(=O)O)[C@@H]1C=C(C)CC[C@H]1C(C)(C)O2 [THCVA]	–	–	–	–	–	1.2	0.076	0.077
CCCCCc1cc(O)c2c(c1)OC(C)(C)[C@@H]1CCC(C)=C[C@@H]21 [THC]	–	–	–	–	–	9.2	0.680	0.749
